The test system of data set [1] is human platelets stimulated by thrombin. The experiment in a line: Platelet anti-aggregating activity in vitro. It is filed as cell-based. The following applies: 10^-5 to 10^-7 molar range, natural product = 1.0. An excerpt:
(§1) Example of the anti-cyclooxygenase (I), platelet anti-aggregating (II) and vasodilative (III) properties of the test compounds tested in vitro at concentrations in the molar range from 10^-5 to 10^-7 of the product in water/alcohol with the addition of small amounts of DMSO (dimethylsulphoxide). The activities are expressed as the potency ratio versus the natural product used as a unit standard, as stated in Table

In data set [2] the test system is cyclo-oxygenase. The experiment in a line: Anti-cyclooxygenase activity. Format: cell-based. Conditions: for anti-cyclooxygenase (I), potency ratio versus natural product: in vitro, 10^-5 to 10^-7 molar range, natural product = 1.0. As for the experimental part:
(§2) The activity inhibiting cyclo-oxygenase was determined in isolated cells. Endothelial cells of bovine aorta were used as a source of COX-1 and macrophage line J774.2 as a source of COX-2. The same conditions described by Mitchell et al. (Proc. Nat. Acad. Sci. 90, 11693, 1993) for growth and the viability test were used.
(§3) In brief, the cells were incubated for 30 minutes with scalar concentrations of the test product and the substrate (arachidonic acid) was then added and incubated for another 15 minutes. Enzyme activity was determined radioimmunologically by measuring the formation of 6-keto-PGF 1 alpha. In the case of cell lines J.774.2, the cells were incubated for 12 hours with endotoxin to promote COX-2 formation.
as §1

Data set [3] concerns carrageenin-oedema. The experiment in a line: Anti-inflammatory activity, carrageenin-oedema method. Format: in vivo. The following applies: rats, oral 3 to 30 mg/Kg in carboxymethylcellulose; natural product = 1.0.
Description: (§6) Study of the anti-inflammatory (I) and analgesic (II) properties (pharmacodynamics) and gastrointestinal tolerance (III) (toxicity) of the test compounds after oral administration of doses ranging from 3 to 30 mg/Kg in carboxymethylcellulose suspensions and constructing dose-responsecurves. […] Activities are expressed as the potency ratio compared to the natural product used as a unit standard.
For data set [4], the system named is gastropathy. The experiment in a line: Gastric tolerance, severity of induced gastropathy. Conditions: rats, oral 3 to 30 mg/Kg in carboxymethylcellulose; natural product = 1.0. As for the experimental part:
Gastric tolerance was measured by oral administration to rats assessing the severity of the gastropathy induced in accordance with the criteria described by Wallace et al. (Am. J. Physiol. 259, G642, 1990).
Study of the anti-inflammatory (I) and analgesic (II) properties (pharmacodynamics) and gastrointestinal tolerance (III) (toxicity) of the test compounds after oral administration of doses ranging from 3 to 30 mg/Kg in carboxymethylcellulose suspensions and constructing dose-responsecurves.
Activities are expressed as the potency ratio compared to the natural product used as a unit standard. The nitroderivative is that of the shown examples, the natural reference compound is that shown as a reference.

Data set [5] addresses T1, COX-2 (Mus musculus, UniProt Q05769).
T1 construct: endogenous in cells; host or cells: J774.2 macrophages, 12 h with endotoxin
T1 sequence (Q05769 18-604): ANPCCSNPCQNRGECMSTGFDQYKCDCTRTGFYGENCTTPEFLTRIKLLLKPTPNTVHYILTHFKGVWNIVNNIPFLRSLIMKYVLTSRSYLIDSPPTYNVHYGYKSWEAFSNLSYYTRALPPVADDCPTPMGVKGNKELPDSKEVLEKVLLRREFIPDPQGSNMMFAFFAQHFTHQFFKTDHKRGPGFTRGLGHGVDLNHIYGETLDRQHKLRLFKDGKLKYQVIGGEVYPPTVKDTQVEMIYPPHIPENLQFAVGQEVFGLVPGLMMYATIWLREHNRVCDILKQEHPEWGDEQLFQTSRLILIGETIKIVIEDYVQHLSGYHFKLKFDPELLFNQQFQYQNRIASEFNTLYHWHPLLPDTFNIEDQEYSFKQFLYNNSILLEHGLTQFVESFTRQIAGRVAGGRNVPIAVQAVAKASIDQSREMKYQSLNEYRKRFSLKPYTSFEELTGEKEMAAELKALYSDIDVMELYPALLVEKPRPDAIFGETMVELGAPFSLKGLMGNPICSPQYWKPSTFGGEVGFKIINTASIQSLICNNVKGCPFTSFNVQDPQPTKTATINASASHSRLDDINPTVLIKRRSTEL
The data set can be described thus: COX-2 inhibition in isolated cells. Format: cell-based. The method, then:
as §2, §3
(§4) Study of the anti-cyclooxygenase (COX-1/COX-2) properties in isolated cells.
(§5) Response expressed as a % of the controls with relative response variability.

Data set [6] concerns Swiss mice. The experiment in a line: Analgesic activity (Hendershot et al.). Format: in vivo. Conditions: oral 3 to 30 mg/Kg in carboxymethylcellulose, natural product = 1.0.
Description: as §6
Data set [7] deals with nitrosynthetase (NOS). The experiment in a line: Nitrosynthetase (NOS) activity induced by LPS in rats. Conditions: oral, LPS only = 100. Format: in vivo, rat. As for the experimental part: The nitrosynthetase inhibition activity induced by lipopolysaccharide (LPS) was determined in rat neutrophils and stomach after administration of one of the test compounds and compared with that obtained after treatment of the suspension vehicle only.
In brief, Wistar rats fasting for 24 hours before treatment were orally administered the test product (10 mg/Kg) and intravenously (caudal vein) administered LPS (5 mg/Kg).
Four hours later the animals were sacrificed and the blood--for neutrophils isolation--and the stomach taken.
Enzyme activity was determined in accordance with the method described by Assreuy et al. (Br. J. Pharmacol. 108, 833, 1993).
Study of the inhibitory properties of the nitrosynthetase (NOS) activity induced by liposaccharide (LPS) in rats using oral doses ranging from 5 to 20 mg/Kg suspended in a carboxymethylcellulose base.

Data set [8] deals with T2, COX-1 (Bos taurus, UniProt O62664).
T2 construct: Endothelial cells of bovine aorta were used as a source of COX-1; endogenous in cells; host or cells: bovine aortic endothelial cells
T2 sequence (O62664 25-600): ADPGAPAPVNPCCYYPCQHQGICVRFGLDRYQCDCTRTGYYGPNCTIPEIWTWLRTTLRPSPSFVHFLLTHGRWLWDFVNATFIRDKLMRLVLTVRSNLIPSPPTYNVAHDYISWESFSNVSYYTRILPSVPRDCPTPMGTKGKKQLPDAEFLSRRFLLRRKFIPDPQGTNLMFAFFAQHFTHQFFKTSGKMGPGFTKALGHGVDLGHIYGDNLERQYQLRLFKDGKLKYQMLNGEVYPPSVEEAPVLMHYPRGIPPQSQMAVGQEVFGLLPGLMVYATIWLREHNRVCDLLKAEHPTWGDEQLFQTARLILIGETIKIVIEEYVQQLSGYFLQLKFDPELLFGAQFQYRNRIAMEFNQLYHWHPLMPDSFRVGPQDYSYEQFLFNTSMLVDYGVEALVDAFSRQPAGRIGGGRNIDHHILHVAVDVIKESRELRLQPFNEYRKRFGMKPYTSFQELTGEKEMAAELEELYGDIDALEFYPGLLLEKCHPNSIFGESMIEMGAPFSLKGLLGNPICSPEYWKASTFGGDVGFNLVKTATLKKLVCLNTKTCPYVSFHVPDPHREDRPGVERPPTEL
The experiment in a line: COX-1 inhibition in isolated cells. It is filed as cell-based, bovine. The following applies: read-out: COX-1 response, % of the controls with response variability. As for the experimental part: as §2, §3, §4, §5

Data set [9] relates to isolated rat aorta. The experiment in a line: Vasodilative activity, inhibition of contraction induced by epinephrine. Conditions: in vitro, 10^-5 to 10^-7 molar range.
Description: as §1

Data set [10] has as its system gastric mucous membrane. The data set can be described thus: Gastric irritation of Tween 80 / dimethylsulphoxide suspensions. It is filed as in vivo. Conditions: suspension with Tween 80 and dimethylsulphoxide (0.1% and 1% for nitroxybutylflurbiprofen; lower amounts for NO-flurbiprofen derivative).
[11] abbreviates: J774.2, read-out: COX-2 response, % of the controls with response variability.

Each structure is given as a SMILES string. Like-named read-outs stand apart in the source and are kept apart here.

Consider `O=C(Cc1ccccc1Nc1c(Cl)cccc1Cl)OCCOCCO[N+](=O)[O-]` [Example 1b, 2-{N-[2,6-(dichloro)phenyl]amino}phenylacetate of 2-[2-(nitroxy)ethoxy]ethyl], for which the “platelet anti-aggregating (II), potency ratio versus natural product” value in data set [1] is given as 1.8. Moreover, the “direct inhibition of cyclo-oxygenase COX-1 and COX-2” value in data set [2] (Table 4 data) was “capable of directly inhibiting cyclo-oxygenase COX-1 and COX-2”. Further, the “anti-cyclooxygenase (I), potency ratio versus natural product” value in data set [2] is recorded as 1.8. Also, the “anti-inflammatory properties (I), potency ratio versus natural reference product” value in data set [3] worked out at 1.3. In addition, the “gastrointestinal tolerance (III) (toxicity), potency ratio versus natural reference product” value in data set [4] was 0.3. Further, the remaining activity at 100 µg/mL in data set [5] (0.1 mg/ml, macrophage line J774.2 with endotoxin, read-out: COX-2 response, % of the controls with response variability) turned out to be 45 ± 3%; in [8] (0.1 mg/ml, endothelial cells of bovine aorta), 49 ± 6%. Also, the remaining activity at 1000 µg/mL was determined as 22 ± 4% in data set [5] (1.0 mg/ml, macrophage line J774.2 with endotoxin, read-out: COX-2 response, % of the controls with response variability) and 29 ± 4% in [8] (1.0 mg/ml, endothelial cells of bovine aorta). In addition, the “analgesic properties (II), potency ratio versus natural reference product” value in [6] is on record as 0.9. Further, the “NOS, neutrophils; inhibition relative to the group treated with LPS only” value in data set [7] was found to be 52. For the same compound, the “NOS, stomach; inhibition relative to the group treated with LPS only” value in data set [7] is reported as 40. For the same compound, the “vasodilative (III), % of inhibitory action of the vasospasm induced by epinephrine” value in data set [9] is 50%.
Consider `CC(C(=O)Oc1cccc(CO[N+](=O)[O-])c1)c1cccc(C(=O)c2ccccc2)c1` (centres unmarked) [Example 1c, 2-(3-benzoyl)phenylpropionate of 3-(nitroxymethyl)phenyl], for which the “platelet anti-aggregating (II), potency ratio versus natural product” value in data set [1] amounted to 1.8. The “anti-cyclooxygenase (I), potency ratio versus natural product” value in data set [2] came to 1.2. Further, in [3], the “anti-inflammatory properties (I), potency ratio versus natural reference product” value worked out at 1.0. Also, the “gastrointestinal tolerance (III) (toxicity), potency ratio versus natural reference product” value in [4] was determined as 0.1. Besides, in [6], the “analgesic properties (II), potency ratio versus natural reference product” value came to 1.2. Besides, in [7], the “NOS, neutrophils; inhibition relative to the group treated with LPS only” value came out at 30 and the “NOS, stomach; inhibition relative to the group treated with LPS only” value was 40. Further, the “vasodilative (III), % of inhibitory action of the vasospasm induced by epinephrine” value in data set [9] turned out to be 50%.
In the case of `CC(C(=O)OCCCCO[N+](=O)[O-])c1ccc(-c2ccccc2)c(F)c1` (centres unmarked) [FLURBIPROFEN NITROXYBUTYLESTER], the “irritant effect on gastric mucous membrane” value in [10] is recorded as “irritant to the gastric mucous membrane”. Besides, the remaining activity at 100 µg/mL amounted to 46 ± 23% in [5] (setting [11]) and 48 ± 18% in [8]. The values for the remaining activity at 1000 µg/mL in data set [5] (setting [11]) and in data set [8] were 22 ± 14% and 29 ± 13%, respectively.

For the origin of these results see patent US5861426A, “Nitro compounds of the formula A-Xi -NO2 and their compositions having anti-inflammatory, analgesic and anti-thrombotic activities” (Nicox S.A., priority 1994, dated 1999).
